Each structure is given as a SMILES string. pIC50: −log10 of the molar value. Like-named read-outs stand apart in the source and are kept apart here.

In one experiment the test system is SNU398 cells. Nature of the experiment: Extracellular lactate production inhibition after 4 h, SNU398. The conditions noted are these: Homo sapiens, SNU-398, read-out: IC50 (SNU-398).
A further experiment has as its system MDA-MB-231 cells. Nature of the experiment: Extracellular lactate production inhibition after 4 h, MDA-MB-231. The conditions noted are these: Homo sapiens.
The subject of a further experiment is MIA PaCa-2 cells. Briefly: Extracellular lactate production inhibition after 4 h, MIA PaCa-2. To be noted: Homo sapiens, MIA PaCa-2, read-out: IC50 (MiaPACa).
Where [1] appears, read: MDA-MB-231, read-out: IC50 (MDA-MB231).

Procedure for MIA PaCa-2 cells: (§1) Extracellular Lactate Production Inhibition after 4 h
(§2) Cells were plated in growth media supplemented with 10% FBS, followed by overnight recovery at 37° C., 5% CO2. […] Plates were then moved for 4 h incubation at 37° C., 5% CO2 with subsequent 20 μl media transfer to empty 384-well transparent plates. […] Plates were short-spun and measured kinetically in absorbance mode (530 nm, 12 min measurement time with 2-minute intervals between subsequent readouts at 30° C.). Differences in the signal between T8 min and T0min were normalized to vehicle (cells w/ 0.25% DMSO) and quasi-positive (LCIS buffer w/ 0.25% DMSO) controls and plotted against logarithmically-transformed test compound concentrations with fitting the 4-parameter model in GraphPad Prism software.
Procedure for SNU398 cells: as §1, §2

One may read the pIC50 as −log10 of the IC50, conventionally taken in molar units. Turning to `COc1ccc(S(=O)(=O)Nc2ccccc2C#Cc2ccc(C(=O)N(C)C)nc2)c2ncccc12` [Compound 217], the pIC50 in the experiment on SNU398 cells is over 6.00; in the experiment with MDA-MB-231 cells (MDA-MB-231) it was 4.00 to 6.00; with MDA-MB-231 cells (setting [1]), over 6.00; in the experiment with MIA PaCa-2 cells it was over 6.00.
As to `Cc1ccc2cccnc2c1S(=O)(=O)Nc1ccccc1C#Cc1cnc(C(=O)O)c2ccccc12` [Compound 208, 4-{2-[2-(7-methylquinoline-8-sulfonamido)phenyl]ethynyl}isoquinoline-1-carboxylic acid], the pIC50 in the experiment on SNU398 cells was over 6.00; with MDA-MB-231 cells (MDA-MB-231) it was 6.00 to 7.00; in the experiment with MDA-MB-231 cells (setting [1]) it was over 6.00; in the experiment on MIA PaCa-2 cells, over 6.00.
`Cc1cc(S(=O)(=O)Nc2ccccc2C#Cc2ccc(C(=O)O)nc2)c2ncccc2c1` [Compound 265, 5-[2-(6-Methyl-quinoline-8-sulfonyl-amino)-phenylethynyl]-pyridine-2-carboxylic acid] gave a pIC50 in the experiment with MDA-MB-231 cells (MDA-MB-231) of 6.00 to 7.00.
In the experiment on MDA-MB-231 cells (MDA-MB-231), `Cc1ccc2cccnc2c1S(=O)(=O)Nc1ccccc1C#Cc1ccc(C(=O)OCCOCCO)nc1` [Compound 409, 2-(2-hydroxyethoxy)ethyl 5-{2-[2-(7-methylquinoline-8-sulfonamido)phenyl]ethynyl}pyridine-2-carboxylate] gave a pIC50 of 6.00 to 7.00.
Still for that read-out and setting: then `O=C(O)c1ccc(C#Cc2ccccc2NS(=O)(=O)c2cccc3nsnc23)cn1` [Compound 292, 5-{2-[2-(2,1,3-benzothiadiazole-4-sulfonamido)phenyl]ethynyl}pyridine-2-carboxylic acid], with 4.00 to 6.00; and `COc1ccc(S(=O)(=O)Nc2ccccc2C#Cc2ccc(C(=O)O)cc2)c2c1CCCC2` [Compound 11, 4-{2-[2-(4-methoxy-5,6,7,8-tetrahydronaphthalene-1-sulfonamido)phenyl]ethynyl}benzoic acid], with 6.00 to 7.00.

For the origin of these results see patent US12351570B2 (MERCK PATENT GMBH, priority 2018, dated 2025).
